Values joined by “and” are separate entries in the source; they are usually repeats but may differ in a detail not shown here. Identical values can stand only once. Inconclusive results and toxic doses are left out. Non-standard residues stand in square brackets, D forms with d. Residues, ends and D or L forms follow the SMILES beside them. ξ: configuration not given here. *: point of attachment. ξF = NC(Cc1ccccc1)C(=O)O; Cbz = O=C(OCc1ccccc1)*; OBn = c1ccc(CO*)cc1

Among the data in PubChem BioAssay AID256 (DTP/NCI, 2004) are T/C values, retold here.

The experiment deals with CD2F1 mice, L1210 leukemia ip, survival T/C. Nature of the experiment: NCI In Vivo Anticancer Drug Screen. Data for tumor model L1210 Leukemia (intraperitoneal) in CD2F1 (CDF1) mice. To be noted: endpoint: mean survival time, higher = longer survival. The method, boiled down:
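Activity against a transplanted murine tumor was judged by comparing the compound group with a vehicle group. The outcome in the treated animals was divided by that in the controls.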

[1] abbreviates: dose: 3.12 mg/kg/injection, schedule: Q01DX009 (ip), vehicle: saline.
The mark [2] stands for this setting: dose: 6.25 mg/kg/injection, schedule: Q01DX009 (ip), vehicle: saline.
The mark [3] stands for this setting: dose: 12.5 mg/kg/injection, schedule: Q01DX009 (ip), vehicle: saline.
The mark [4] stands for this setting: dose: 50.0 mg/kg/injection, schedule: Q01DX009 (ip), vehicle: saline.
The mark [5] stands for this setting: dose: 100.0 mg/kg/injection, schedule: Q01DX009 (ip), vehicle: saline.
[6] abbreviates: dose: 100.0 mg/kg/injection, schedule: Q04DX003 (ip), vehicle: saline with Tween-80.
The mark [7] stands for this setting: dose: 200.0 mg/kg/injection, schedule: Q04DX003 (ip), vehicle: saline with Tween-80.
The mark [8] stands for this setting: dose: 400.0 mg/kg/injection, schedule: Q04DX003 (ip), vehicle: saline with Tween-80.
[9] abbreviates: dose: 100.0 mg/kg/injection, schedule: Q01DX009 (ip), vehicle: saline with Tween-80.
Where [10] appears, read: dose: 200.0 mg/kg/injection, schedule: Q01DX009 (ip), vehicle: saline with Tween-80.
Setting [11] is: dose: 400.0 mg/kg/injection, schedule: Q01DX009 (ip), vehicle: saline with Tween-80.
[12] abbreviates: dose: 25.0 mg/kg/injection, schedule: Q01DX009 (ip), vehicle: water.
The mark [13] stands for this setting: dose: 50.0 mg/kg/injection, schedule: Q01DX009 (ip), vehicle: water.
[14] abbreviates: dose: 100.0 mg/kg/injection, schedule: Q01DX009 (ip), vehicle: water.
The mark [15] stands for this setting: dose: 200.0 mg/kg/injection, schedule: Q01DX009 (ip), vehicle: water.

As to `CCCCOCCOCCOCc1cc2c(cc1CCC)OCO2`, the T/C is, setting by setting: (dose: 50.0 mg/kg/injection, schedule: Q01DX009 (ip), vehicle: Klucel (hydroxypropylcellulose) (HPC)) 96 % of control; (dose: 100.0 mg/kg/injection, schedule: Q01DX009 (ip), vehicle: Klucel (hydroxypropylcellulose) (HPC)) 89 % of control; (dose: 200.0 mg/kg/injection, schedule: Q01DX009 (ip), vehicle: Klucel (hydroxypropylcellulose) (HPC)) 100 % of control.
In the case of `CC(=O)OCC1OC(N2CN=C(N)NC2=O)C(OC(C)=O)C1OC(C)=O` (stereo unspecified), the T/C under setting [1] was 109 % of control; the T/C under setting [2] was 108 % of control; the T/C under setting [3] was 115 % of control and 110 % of control; the T/C under setting [4] was 178 % of control and 183 % of control; the T/C under setting [5] was 203 % of control and 208 % of control.
As for `O=c1[nH]c2ccccc2o1`, the T/C (dose: 12.5 mg/kg/injection, schedule: Q01DX009 (iv), vehicle: methylcellulose (MC)) is 95 % of control; the T/C (dose: 25.0 mg/kg/injection, schedule: Q01DX009 (iv), vehicle: methylcellulose (MC)) is 90 % of control; the T/C (dose: 50.0 mg/kg/injection, schedule: Q01DX009 (iv), vehicle: methylcellulose (MC)) is 94 % of control.
Take `CC(C)/C(=N\[N+](C)(C)C)c1ccccc1`: the T/C runs as follows: (dose: 18.8 mg/kg/injection, schedule: Q01DX009 (ip), vehicle: saline) 97 % of control; (dose: 37.5 mg/kg/injection, schedule: Q01DX009 (ip), vehicle: saline) 96 % of control; (dose: 75.0 mg/kg/injection, schedule: Q01DX009 (ip), vehicle: saline) 91 % of control.
For `CCCCCCCCCCCCCCn1cnc2c(Cl)ncnc21`, the T/C by setting is: (dose: 12.5 mg/kg/injection, schedule: Q01DX005 (ip), vehicle: other) 105 % of control; (dose: 25.0 mg/kg/injection, schedule: Q01DX005 (ip), vehicle: other) 97 % of control; (dose: 50.0 mg/kg/injection, schedule: Q01DX005 (ip), vehicle: other) 94 % of control; (dose: 100.0 mg/kg/injection, schedule: Q01DX005 (ip), vehicle: other) 97 % of control; (dose: 200.0 mg/kg/injection, schedule: Q01DX005 (ip), vehicle: other) 102 % of control.
Turning to `CCOC(=O)CCC(NC(=O)c1ccccc1NC)C(=O)OCC` (stereo unspecified), the T/C under setting [6] was 101 % of control, the T/C under setting [7] was 101 % of control and the T/C under setting [8] is 103 % of control.
Take `Nc1ccccc1-c1ccccc1N`: the T/C (dose: 100.0 mg/kg/injection, schedule: Q04DX002 (ip), vehicle: saline) is 87 % of control.
Consider `C=CC1CC[N-]CC1.C=CC1CC[N-]CC1.C=CC1CC[N-]CC1.[Cl][Cr]([Cl])[Cl]`, for which the T/C (dose: 100.0 mg/kg/injection, schedule: Q04DX003 (ip), vehicle: saline) was 102 % of control.
For `O=[N+]([O-])c1ccc2cn[nH]c2c1`, the T/C is 92 % of control (dose: 100.0 mg/kg/injection, schedule: Q01DX001 (ip), vehicle: alcohol); 98 % of control (dose: 200.0 mg/kg/injection, schedule: Q01DX001 (ip), vehicle: alcohol); 93 % of control (dose: 400.0 mg/kg/injection, schedule: Q01DX001 (ip), vehicle: alcohol).
For `O=C(CNC(=O)OCc1ccccc1)NCC(=O)NC(Cc1ccccc1)C(=O)OCc1ccccc1` (stereo not drawn) (Cbz-Gly-Gly-[ξF]-OBn), the T/C under setting [6] was 97 % of control, the T/C under setting [7] is 103 % of control and the T/C under setting [8] is 99 % of control.
Take `CCN(C(=O)Nc1cccc(Cl)c1)c1ccccc1C`: the T/C reads like this: under setting [9], 91 % of control; under setting [10], 97 % of control; under setting [11], 97 % of control.
For the compound `NC1CC(=O)C(CC2C(=O)CC(N)CC2=O)C(=O)C1` (stereo unspecified), the T/C was 102 % of control under setting [6], 101 % of control under setting [7] and 98 % of control under setting [8].
Consider `COc1cc2ccc(/C=N/NC(N)=S)cc2cc1OC`, for which the T/C runs as follows: under setting [12], 94 % of control; under setting [13], 98 % of control; under setting [14], 102 % of control; under setting [15], 93 % of control.
As for `NC1=NCN2C(=N1)OC1C(O)C(CO)OC12` (stereo unspecified), the T/C runs as follows: (dose: 1.56 mg/kg/injection, schedule: Q01DX009 (ip), vehicle: saline) 94 % of control and 106 % of control; under setting [1], 91 % of control and 102 % of control; under setting [2], 91 % of control and 103 % of control; under setting [3], 91 % of control; (dose: 25.0 mg/kg/injection, schedule: Q01DX009 (ip), vehicle: saline) 91 % of control and 100 % of control; under setting [4], 91 % of control and 97 % of control. Further, the T/C under setting [5] was 92 % of control and 96 % of control; the T/C (dose: 200.0 mg/kg/injection, schedule: Q01DX009 (ip), vehicle: saline) is 88 % of control and 100 % of control.
`Nc1nc(N)c2c(Cl)c(CNc3ccc(C(=O)NC(CC(=O)O)C(=O)O)cc3)ccc2n1` (stereo unspecified): the T/C is, setting by setting: (dose: 2.0 mg/kg/injection, schedule: Q01DX001 (ip), vehicle: saline) 121 % of control; (dose: 2.0 mg/kg/injection, schedule: Q01DX009 (oral), vehicle: saline) 94 % of control; (dose: 2.0 mg/kg/injection, schedule: Q03HX024 (ip), vehicle: saline) 101 % of control; (dose: 2.0 mg/kg/injection, schedule: Q08DX002 (ip), vehicle: saline) 104 % of control; (dose: 4.0 mg/kg/injection, schedule: Q01DX001 (oral), vehicle: saline) 103 % of control; (dose: 4.0 mg/kg/injection, schedule: Q01DX009 (ip), vehicle: saline) 120 % of control. Moreover, the T/C runs as follows: (dose: 4.0 mg/kg/injection, schedule: Q01DX009 (sc), vehicle: saline) 98 % of control; (dose: 8.0 mg/kg/injection, schedule: Q01DX009 (oral), vehicle: saline) 118 % of control; (dose: 8.0 mg/kg/injection, schedule: Q03HX024 (ip), vehicle: saline) 95 % of control; (dose: 16.0 mg/kg/injection, schedule: Q01DX001 (oral), vehicle: saline) 120 % of control; (dose: 16.0 mg/kg/injection, schedule: Q01DX009 (ip), vehicle: saline) 88 % of control; (dose: 16.0 mg/kg/injection, schedule: Q01DX009 (sc), vehicle: saline) 87 % of control. Besides, the T/C by setting is: (dose: 16.0 mg/kg/injection, schedule: Q03HX016 (ip), vehicle: saline) 98 % of control; (dose: 32.0 mg/kg/injection, schedule: Q01DX009 (oral), vehicle: saline) 93 % of control; (dose: 512.0 mg/kg/injection, schedule: Q01DX001 (sc), vehicle: saline) 96 % of control.
On to `NC(=O)c1ncn(CCCCCO)c1N`, for which the T/C reads like this: (dose: 100.0 mg/kg/injection, schedule: Q01DX001 (ip), vehicle: other) 91 % of control; (dose: 200.0 mg/kg/injection, schedule: Q01DX001 (ip), vehicle: other) 103 % of control; (dose: 400.0 mg/kg/injection, schedule: Q01DX001 (ip), vehicle: other) 101 % of control.
For `COC1c2cc3ccccc3nc2-c2ccccc2C1(C)C` (stereo unspecified), the T/C was 96 % of control (dose: 12.5 mg/kg/injection, schedule: Q01DX009 (ip), vehicle: water); 96 % of control under setting [12]; 91 % of control under setting [13]; 91 % of control under setting [14]; 90 % of control under setting [15].
Regarding `OC(COc1ccccc1Cl)COc1ccccc1Cl`, the T/C (dose: 100.0 mg/kg/injection, schedule: Q04DX003 (ip), vehicle: saline + alcohol) was 101 % of control; the T/C (dose: 200.0 mg/kg/injection, schedule: Q04DX003 (ip), vehicle: saline + alcohol) is 95 % of control; the T/C (dose: 400.0 mg/kg/injection, schedule: Q04DX003 (ip), vehicle: saline + alcohol) is 95 % of control.
Regarding `COc1cc2ccnc(/C=N\NC(N)=S)c2cc1OC`, the T/C was 93 % of control (dose: 25.0 mg/kg/injection, schedule: Q01DX009 (ip), vehicle: saline with Tween-80); 96 % of control (dose: 50.0 mg/kg/injection, schedule: Q01DX009 (ip), vehicle: saline with Tween-80); 96 % of control under setting [9]; 95 % of control under setting [10].
On to `CC1(C)CC(=O)C2=C(C1)OC1=C(C(=O)CC(C)(C)C1)C2c1ccccc1[N+](=O)[O-]`, for which the T/C was 100 % of control under setting [9], 95 % of control under setting [10] and 94 % of control under setting [11].
